Source: PubChem BioAssay AID179 (DTP/NCI, 2004)
The source made the active and inactive calls.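 The calls were made as follows: active = compounds giving half or more protection of infected cells from virus-caused growth loss, again on retest; inactive = the rest.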 Where a SMILES comes first, the peptide text is derived from it. [ ]: non-standard residue; d: D form. pGlu = O=C1CC[CH](C(=O)O)N1

Tested on: CEM cells HIV-1 protection, formazan growth assay
Assay: NCI AIDS Antiviral Assay
Conditions: for IC50: measured here: growth of uninfected CEM cells
Method in brief: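 Soluble formazan readout of cell growth; CEM cells ± HIV-1; 5 drug concs. ≥50% protection → retest; ≥50% again = moderately active; reproducible 100% = confirmed active.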

SMILES | outcome | EC50 [µM] | IC50 [µM]
O=C(O)C(O[N+](=O)[O-])c1ccccc1 (stereo not drawn) | inactive | – | –
CC(C)[Si](OC1=C(C(=O)Nc2ccccc2Cl)CCCCC1)(C(C)C)C(C)C | – | > 200 | 70.8
CCOc1cc(NCCCN)c2nc(OCc3ccccc3)ccc2c1 | – | > 200 | 25.7
CCOC(=O)c1nc2ccc(C(F)(F)F)cc2nc1NCc1ccc(OC)c(OC)c1 | – | > 200 | 85.1
COc1ccc(C2C(C#N)=C(S)N(C3OC(COC(C)=O)C(OC(C)=O)C(OC(C)=O)C3OC(C)=O)C(c3ccccc3)=C2C(C)=O)cc1 (stereo not drawn) | – | > 200 | 25.1
CCCCCCCCCCCCCCCC=C(c1cc(Cl)c(OC)c(C(=O)OC)c1)c1cc(Cl)c(OC)c(C(=O)OC)c1 | – | > 6.61 | > 6.61
CC(=O)OC1(Sc2ccccc2)CC2[C@H]3COC(C)(C)O[C@H]3CC[C@@]2(C)CC1=O (stereo partly drawn) | inactive | – | –
CN(C)CC1CCC/C(=C\c2ccc(OC(=O)/C=C/c3ccc(Cl)cc3)cc2)C1=O (stereo not drawn) | – | > 50.1 | 2.19
C/C(=N\NC(=S)N1CCC1)c1ccccn1 | – | > 0.2 | 0.00525
CC(C)CC(NC(=O)C(CO)NC(=O)C(CCCCN)NC(=O)C(CCCCN)NC(=O)C(NC(=O)CNC(=O)C(NC(=O)C(CO)NC(=O)C(NC(=O)C(NC(=O)C(CO)NC(=O)C(CC(N)=O)NC(=O)C1CCC(=O)N1)C(C)C)C(C)C)C(C)O)C(C)C)C(=O)NC(Cc1ccccc1)C(=O)NC(CCC(N)=O)C(=O)O (stereo not drawn) ([pGlu]NSVVSTGVKKSLFQ-OH; configuration not given here) | – | > 30.9 | > 30.9
O=C(NNc1nc2cccnc2n2ccnc12)c1cnccn1 | – | > 1 | 0.135
COc1ccc(C[C@H]2COC(=O)[C@@H]2Cc2ccc3c(c2)OCO3)cc1OC | – | > 200 | 19.1
Nc1ccc(Sc2nnc(N)s2)cc1 | – | > 224 | > 224
COP(=O)(OC)C1c2ccccc2-c2cccc(C(=O)O)c21 (stereo not drawn) | – | > 200 | > 200
Cc1ccc(SCC(CF)OCn2cnc3c(N)ncnc32)cc1 (stereo not drawn) | – | > 200 | > 200
Cc1ccc2c(c1)nc1n2C(c2c(F)cccc2F)SC1 (stereo not drawn) | – | > 200 | 33.1
CC(C)=C=CCN(C)Cc1ccccc1 | – | > 309 | > 309
CC1(C)CC(=O)C2C(C1)Nc1ccccc1NC2c1ccccc1[N+](=O)[O-] (stereo not drawn) | – | > 61.7 | > 61.7
CC(=O)O[C@H]1CCCC[C@H]1c1ccccc1 | – | > 309 | > 309
COc1cc2c(cc1OC)C(=O)N1CCCC1CS2 (stereo not drawn) | – | > 200 | > 200
Cc1cc2c3c(nc2c2cc[nH]c(C)c12)CCCC3 | – | > 200 | 3.63
COc1cc2c(cc1OC)-c1cc3cc(OC)c(OC)cc3c(=O)n1CC2 | – | > 200 | 7.24
Cc1noc2c1NC(=O)OC(C)(C)C2 | – | > 447 | > 447

SMILES | outcome | EC50 [µM] | IC50 [µM]
COc1cccc(C(O)C(CN2CCCCC2)CN2CCCCC2)c1 (stereo not drawn) | – | > 200 | > 100
CC(=O)NC(NCCN)(c1ccccc1)c1ccccc1 | – | > 200 | > 200
N#C/C(=C\c1ccc2[nH]ccc2c1)C(=O)c1ccc(O)c(O)c1 | – | > 589 | 102
C=CS(=O)(=O)CCN1CC1 | – | > 200 | > 200
O=[N+]([O-])/C(C(Cl)=C(Cl)Cl)=C(/Cl)Sc1ccccc1 | – | > 200 | 1.23
Cc1ccc(C(=O)OC[C@H]2CC[C@@H](n3cc(N(C)C4CCCCC4)c(=O)[nH]c3=O)O2)cc1 | – | > 200 | 53.7
CCCCC(=S)SSC(C)(C)C | – | > 200 | 55
COC1=C(C)C(=O)c2c(c(COC(N)=O)c3n2CC(OC(C)=O)C3OC(C)=O)C1=O (stereo not drawn) | – | > 2 | 0.178
CCCCN(CCCC)CC(C(=O)Nc1ccc([N+](=O)[O-])cc1[N+](=O)[O-])/C(C)=N\NC(=S)NN (stereo not drawn) | – | > 52.5 | > 52.5
NC(=O)CN(CC(N)=O)C(N)=O | – | > 724 | > 724
S=C=Nc1ccc(CSc2nc3ccccc3[nH]2)cc1 | inactive | – | –
COc1cc2c(cc1OC)/C(=C\c1ccccc1N)C(=O)OC2 | inactive | – | –
C/C(=N/NC(=O)c1ccncc1)C(F)(F)F | inactive | – | –
CCOC(=O)CC1(N)CC2c3ccccc3OC(=O)C2C(=O)N1 (stereo not drawn) | – | > 200 | > 200
O=S(=O)(CSc1ccccc1)c1ccccc1 | – | > 490 | 288
O=C(CC(O)(c1ccccc1)c1ccc(Cl)cc1)NC(=O)c1ccccc1O (stereo not drawn) | – | > 13.2 | > 13.2
CC(=O)NNc1nc(C)c(C(=O)/C=C/c2ccc(Cl)cc2)s1 | – | > 56.2 | > 56.2
CCOC(=O)c1c(-c2ccc(OC)cc2)c(C#N)c(=S)n(C2OC(CO)C(O)C(O)C2O)c1C (stereo not drawn) | – | > 200 | > 200
CN(C)CCCN=c1c2ccccc2n(O)c2ccccc12 | – | > 200 | 8.13
CCOC1(OCC)CS(=O)(=O)C1c1ccc([N+](=O)[O-])cc1 (stereo not drawn) | – | > 200 | > 200
CC12CCCC(C#N)(C1)OC2=O (stereo not drawn) | inactive | – | –
CN(CCN1C(=O)c2cccc3cc([N+](=O)[O-])cc(c23)C1=O)CCN1C(=O)c2cccc3cc([N+](=O)[O-])cc(c23)C1=O | – | > 9.12 | –
O=C(C(=Cn1c(=O)cc[nH]c1=S)C(=O)c1ccccc1)c1ccccc1 | inactive | – | –

SMILES | outcome | EC50 [µM] | IC50 [µM]
CS(=O)(=O)SCc1ccc([N+](=O)[O-])cc1 | – | > 145 | 20.4
NCCSSc1ccc([N+](=O)[O-])cc1 | inactive | – | –
Cc1ccc(/C(O)=C/c2nc3ccccc3[nH]c2=O)c(C)c1 | – | > 200 | 35.5
O=C(/C=C(\Nc1ccccc1O)c1ccccc1)C(=O)NC12CC3CC(CC(C3)C1)C2 | – | > 200 | > 200
Nc1ccc2ccc(N3CCNCC3)nc2n1 | – | > 200 | 46.8
CC(Nc1ccc(Cl)cc1)c1ccncc1 (stereo not drawn) | – | > 200 | 72.4
Cc1cc(N(CCC#N)CCC#N)ccc1/C(N=Nc1ccc(Cl)cc1)=N\NC(=O)c1cc(Cl)ccc1O | – | > 200 | 102
COc1ccc2nc3cc([N+](=O)[O-])ccc3c(NNc3ccc([N+](=O)[O-])cc3)c2c1 | – | > 200 | 50.1
CC(CCc1nc2ccccc2[nH]1)C1CCC2C3CC[C@@H]4C[C@H](O)CC[C@]4(C)C3CC[C@]12C (stereo partly drawn) | – | > 50.1 | > 50.1
CC[C@@]1(OS(=O)(=O)O)CCC2C3CC=C4CC(O)CC[C@]4(C)C3CC[C@@]21C (stereo partly drawn) | – | 107 | 224
CCOC(=O)C1(C)CCC(C(C(=O)O)C(=O)O)CC1=O (stereo not drawn) | inactive | – | –
O=Nc1cc(S(=O)(=O)O)c2cccnc2c1O | – | > 200 | 52.5
O=C1c2ccccc2C(=O)N1CCc1ncc(-c2ccccc2)[nH]1 | – | > 200 | > 200
Cc1ccc2nc3nc(C)c(C)nc3nc2c1 | – | 1.15 | 14.5
CCOC(=O)C(=O)Nc1c(CC)cccc1C(C)CC (stereo not drawn) | – | > 646 | > 646
O=[N+]([O-])c1cc([As](=O)(O)O)ccc1F | – | > 200 | > 200
CC(=O)O[C@H]1CC[C@@]2(C)C(=CC[C@@H]3C2CC[C@]2(C)Nc4oncc4CC32)C1 (stereo partly drawn) | inactive | – | –
Cc1[nH]cc2c1C(c1ccccc1)=NCC(=O)N2 | – | > 200 | > 200
COc1ccc2c(c1)N1CCc3cc(OC)c(OC)cc3C1C2 (stereo not drawn) | inactive | – | –
O=C(Nc1ccc(Cl)cc1)c1cc(S(=O)(=O)N2CCNNC2=O)c(S)cc1Cl | – | 9.77 | 129
CCCCCCCCCCOC(=O)c1cc[n+](C)cc1 | inactive | – | –
CCc1ccccc1-n1c2nc(=O)n(C)c(=O)c-2nc2ccccc21 | inactive | – | –
O=c1c2cc3c(=O)n(O)c(=O)c3cc2c(=O)n1O | – | > 200 | > 200

SMILES | outcome | EC50 [µM] | IC50 [µM]
CC[C@]1(Cc2ccc(OC)c(OC)c2)C2CC(C(=O)OC)ON2O[C@H](OCc2ccccc2)[C@@H]1OC(C)=O (stereo partly drawn) | – | > 200 | 102
O=C(CCCN1CCC(O)(c2ccc(Cl)cc2)CC1)c1ccc(F)cc1 | – | > 132 | –
Cc1cc2n[n+]3[n-]cc(-c4ccccc4)n3c2cc1[N+](=O)[O-] | – | > 200 | > 200
C[N+](C)(C)CC1CCC/C1=N\OC(=O)c1ccccc1 (stereo not drawn) | – | > 617 | > 617
CC1(C)CCNc2ccccc2S1 | – | > 229 | > 229
Cc1ccc2c(c1)S(=O)(=O)N(C)C(c1ccccc1)=C2 | – | > 18.2 | > 18.2
Cc1c(S(=O)(=O)c2ccccc2)c(N)n(Cc2ccccc2)c1C | – | > 200 | 74.1
NC(=O)CNC(=O)c1ccccc1SC(=O)CCCCC[n+]1ccccc1 | – | 1.41 | 38
CC(C)=CCC/C(C)=C/CCC(C)/C=C/C(=O)NC[C@@H]1CC[N@+]2(C)CCCC[C@H]12 (stereo partly drawn) | – | > 501 | 23.4
CC(C)C(=O)/C=C/c1ccc(Cl)c(Cl)c1 | – | > 200 | 11
CC(=O)n1c(=O)c2cc3c(=O)n(-c4cccc(C#N)c4)c(=O)c3cc2c1=O | inactive | – | –
CCCCCCC(N)(CCCCCC)C(=O)Nn1c(C)ccc1C | – | > 200 | 16.2
COc1ccc(Cc2nc3ccccc3s2)cc1OC | – | > 126 | 13.8
O=C1C(=O)N(c2ccc(Cl)cc2Cl)C(=O)C(=O)C1c1nc2ccccc2s1 | – | > 85.1 | > 85.1
O=C(O)c1c2c(cc3c1CC1(Cc4cc5c(cc4C1=O)CCC5)C3)CCC2 (stereo not drawn) | – | > 200 | 72.4
COc1cc(CCNC(C)=O)cc(OC)c1OC | – | > 200 | > 200
CCCN(CCC)C(=O)C(=O)c1c(N)[nH]n(-c2ccccc2)c1=O | inactive | – | –
CCOC(=O)C(=CNC(=S)Nc1c(CC)cccc1C(C)(C)C)C(=O)OCC | – | > 200 | > 200
Nc1ccccc1-c1nc2c(ccc3ccccc32)[nH]1 | – | > 72.4 | 57.5
Cc1ccc(C)n1N1CC(C)N(N=O)CC1C (stereo not drawn) | – | > 200 | > 200
NC(=O)CCCCNC(=O)c1ccccc1SC(=O)CCCC[n+]1ccccc1 | – | 1.26 | 10.7
